In patent US20220323795A1, “COMBINATION OF CICLOPIROXOLAMINE AND PIROCTONE OLAMINE FOR COMBATING DANDRUFF” (PIERRE FABRE DERMO-COSMETIQUE, priority 2019, published 2022):
Where two headings read alike, the source gives them in different places.

Experiments:
M. restricta (CBS7877) [1] = assay: Minimum fungicide concentration (MFC) by subculturing the MIC microplates on agar medium; assay type: cell-based, Malassezia restricta
Method: (§1) The strains originate from the collection of the Institut Pasteur (Fungi collection, Paris France) for M. globosa (IP2387.96) and from the collection of CBS-KNAW for M. restricta (CBS7877). These strains represent and correspond to the majority of strains involved in dandruff. The strains are incubated for 5 days at 30° C. on modified Dixon agar under aerobic conditions. The inoculation suspensions are prepared in sterile distilled water and are concentrated to 10^7 CFU/ml. The determination of the minimum inhibitory concentration (MIC) is performed by micromethod in a liquid medium. 100 μl of liquid culture medium is deposited in each well of a sterile 96-well microplate. 100 μl of the solutions to be tested is deposited in the first well of a line of the plate. Dilutions by a factor of 2 are then carried out for wells 1 to 10. The test suspensions of each microorganism are prepared immediately before use in Tryptone salt. 100 μl is deposited in each well of a second microplate, with the exception of column 11. All of the first plate is inoculated using a Denley multipoint inoculate, from the second microplate. After incubation, the MIC are defined as the largest dilution with the absence of visible growth. Columns 11 and 12 serve respectively as a negative and positive control for growth.
(§2) The products tested are: • ciclopiroxolamine, at 3% (wt/wt) with sterile distilled water, • piroctone olamine at 0.3% (wt/wt) with 10% ethanol, • ketoconazole (positive control) at 1000 μg/ml (wt/wt) with 10% DMSO, • piroctone olamine/ciclopiroxolamine combinations, with respective concentrations of 0.15% and 0.75%.
(§3) The determination of the minimum fungicide concentrations (MFC) is carried out by subculturing the MIC microplates on agar medium, using the Denley multipoint inoculator. After incubation, the MFC are defined as the largest dilution with the absence of visible growth. All the tests were carried out in duplicate.

Malassezia globosa = assay: Fungicidal activity, log reduction of colonies after contact time; assay type: cell-based; conditions: PO 0.3%, CPO 1.5%, ketoconazole 2%, PO/CPO 0.3%/1.5%, 10^7 CFU/ml
Method: (§4) The products to be tested alone and combined at the defined concentrations are placed in contact with a suspension of Malassezia containing 10^7 CFU/ml for a contact time of 5 minutes, 15 minutes and 30 minutes. After each contact time, a sample is taken, then diluted and filtered on a cellulose membrane. Each membrane is then deposited on the agar medium (Dixon) and incubated at 30° C. After incubation, the colonies are counted.
(§5) The products tested are: • ciclopiroxolamine, at 1.5% (wt/wt) diluted with sterile distilled water, • piroctone olamine at 0.3% (wt/wt) dissolved in ethanol, then addition of water for injectable preparations (final ethanol concentration of 9%), • ketoconazole (positive control) at 2% (wt/wt) dissolved in DMSO, then addition of water for injectable preparations (final concentration of DMSO 9%). • piroctone olamine/ciclopiroxolamine combinations, with respective concentrations of 0.3% and 1.5%.
(§6) The solutions are prepared at the time of the test and used immediately.

Malassezia restricta = assay: as above; assay type: cell-based; conditions: PO 0.3%, CPO 1.5%, ketoconazole 2%, PO/CPO 0.3%/1.5%, 10^7 CFU/ml
Method: as §4, §5, §6

M. restricta (CBS7877) [2] = assay: Minimum inhibitory concentration (MIC) by micromethod in liquid medium; assay type: cell-based, Malassezia restricta
Method: as §1, §2
(§7) The solutions are prepared at the time of the test and used immediately. An ethanol control was produced, solution at 10%.
(§8) The synergistic effect of two products is determined by calculating the synergy index (FIC, Fractional Inhibitory Concentration).
(§9) FIC Index=(MIC product A combined)/(MIC product alone)+(MIC product B combined)/(MIC product B alone).
(§10) The maximum test concentration corresponds to the concentration of the parent solution/2.

M. globosa (IP2387.96) [3] = assay: Minimum fungicide concentration (MFC) by subculturing the MIC microplates on agar medium; assay type: cell-based, Malassezia globosa; conditions: product alone
Method: as §1, §2, §3

M. globosa (IP2387.96) [4] = assay: Minimum inhibitory concentration (MIC) by micromethod in liquid medium; assay type: cell-based, Malassezia globosa; conditions: product alone
Method: as §1, §2, §7, §8, §9, §10

[5] = Malassezia restricta, CBS7877, product alone, read-out: MFC
[6] = Malassezia restricta, CBS7877, product alone, read-out: MIC
[7] = Malassezia globosa, read-out: MFC
[8] = Malassezia globosa, read-out: MIC

| Compound | MFC (M. restricta (CBS7877) [1]; [5]) [µg/mL] | MFC (M. restricta (CBS7877) [1]; product alone, % (wt/wt)) | Log Reduction (Malassezia globosa; contact time 5 minutes) | Log Reduction (Malassezia globosa; contact time 15 minutes) | Log Reduction (Malassezia globosa; contact time 30 minutes) | Log Reduction (Malassezia restricta; contact time 5 minutes) | Log Reduction (Malassezia restricta; contact time 15 minutes) | Log Reduction (Malassezia restricta; contact time 30 minutes) | MIC (M. restricta (CBS7877) [2]; [6]) [µg/mL] | MIC (M. restricta (CBS7877) [2]; product alone, % (wt/wt)) | MFC (M. globosa (IP2387.96) [3]; [7]) [µg/mL] | MFC (M. globosa (IP2387.96) [3]; % (wt/wt)) | MIC (M. globosa (IP2387.96) [4]; [8]) [µg/mL] | MIC (M. globosa (IP2387.96) [4]; % (wt/wt)) | MFC (M. restricta (CBS7877) [1]; product alone) [µg/mL] | MIC (M. restricta (CBS7877) [2]; product alone) [µg/mL] | MFC (M. globosa (IP2387.96) [3]) [µg/mL] | MIC (M. globosa (IP2387.96) [4]) [µg/mL] |
| --- | --- | --- | --- | --- | --- | --- | --- | --- | --- | --- | --- | --- | --- | --- | --- | --- | --- | --- |
| Cc1cc(C2CCCCC2)n(O)c(=O)c1 [CPO, ciclopiroxolamine] | 15 | 1.5 × 10^−3% | 2.45 | 3.88 | >4.22 | 1.99 | 3.3 | >4.17 | 15 | 1.5 × 10^−3% | 29 | 2.9 × 10^−3% | 29 | 2.9 × 10^−3% |  |  |  |  |
| Cc1cc(CC(C)CC(C)(C)C)n(O)c(=O)c1.NCCO (centres unmarked) [PO, piroctone olamine] |  | 2.3 × 10^−3% | 0.36 | 0.61 | 1.24 | 1.19 | 1.28 | 1.73 |  | 2.3 × 10^−3% |  | 2.3 × 10^−3% |  | 2.3 × 10^−3% | 23 | 23 | 23 | 23 |
| CC(=O)N1CCN(c2ccc(OCC3COC(Cn4ccnc4)(c4ccc(Cl)cc4Cl)O3)cc2)CC1 (centres unmarked) [Keto, ketoconazole] | 0.49 to 0.98 |  | 1.47 | 1.29 | 1.19 | 0.85 | 1.12 | 1.09 | 0.49 |  | 1.94 |  | 0.98 |  |  |  |  |  |
